Experimental data published in patent US6626122B2, “Deactivatable biocides in ballast water” (Chevron U.S.A. Inc, priority 2001, dated 2003).

Experiments:
bacterial inoculum [1] = experiment: Evaluation of biocides: inhibition of growth on FT diesel and ALAD diesel; type: cell-based, alkane degrading organisms; on Growth, Test Results on ALAD Diesel Fuel: key: −: No Growth; +: Growth (White Unless Otherwise Indicated); on Growth, Test Results on Fischer-Tropsch Diesel Fuel: key: −: No Growth; +: Growth (White Unless Otherwise Indicated)
Procedure: The ability of biocides to inhibit growth on a FT diesel and a low aromatics diesel fuel from Example 1 was investigated.
Test Conditions: 90 ml of growth media and 10 ml of either FT diesel or low sulfur (ALAD) diesel was added to 250 ml flasks. […] In addition to the 2 alkynes, glutaraldehyde (glutaric dialdehyde 50%), was tested. The following summarizes the test conditions:
100 ppm inhibitor (on a total test volume basis or 1000 ppm in diesel)
1% inhibitor (on a total test volume basis or 10% in diesel).
After inoculation, the flasks were place on a shaker-table (135 rpm) at room temperature and observed daily.

bacterial inoculum [2] = experiment: Neutralization of biocides with monoethanolamine; type: cell-based; conditions: for Growth, Neutralization of Biocides with MEA: minimal media:FT diesel 10:1; for onset of microbial growth (delayed from 3 days): no MEA
Procedure: In all experiments, a 10:1 ratio of minimal media to Fischer-Tropsch diesel fuel were prepared and evaluated in 250 ml flasks.
In addition to these experiments, several controls were run without Glutaraldehyde as follows: […]

in vivo = conditions: Cyprinodon variegatus (sheepshead minnow, larval)
Procedure: (§1) […]. EPA/600/4-90/027F Washington, D.C.) conducted at Pacific Eco-Risk Laboratories, Martinez, Calif.
(§2) LOEC is the Lowest Observable Effect Concentration and is defined as the minimum concentration where mortality is observed for the test species. […] LC-50, the concentration that will cause mortality of 50% of the organisms tested within 96 h, is a calculated value based on all observations.
(§3) The solutions were mixed for 48 hours prior to the start of the bioassays. The solutions were diluted to perform bioassays at starting glutaraldehyde concentrations of 100, 50, 37.5, 25, and 10.5 mg/L. The results are summarized in Table X.

[3] = system: Larval Sheepshead Minnow (Cyprinodon variegatus); experiment: in vivo; conditions: Cyprinodon variegatus (sheepshead minnow), 96 h
Procedure: as §1, §2, §3

O=CCCCC=O [G, glutaraldehyde]
9 days: onset of microbial growth (delayed from 3 days) (bacterial inoculum [2]; 1 ppm of glutaraldehyde)
−: Growth, Test Results on Fischer-Tropsch Diesel Fuel (bacterial inoculum [1]; FT Diesel + 1 Wt % biocide, Day 0) | Growth, Test Results on Fischer-Tropsch Diesel Fuel (bacterial inoculum [1]; FT Diesel + 1 Wt % biocide, Day 1) | Growth, Test Results on Fischer-Tropsch Diesel Fuel (bacterial inoculum [1]; FT Diesel + 1 Wt % biocide, Day 5) | Growth, Test Results on Fischer-Tropsch Diesel Fuel (bacterial inoculum [1]; FT Diesel + 1 Wt % biocide, Day 7) | Growth, Test Results on Fischer-Tropsch Diesel Fuel (bacterial inoculum [1]; FT Diesel + 1 Wt % biocide, Day 8) | Growth, Test Results on Fischer-Tropsch Diesel Fuel (bacterial inoculum [1]; FT Diesel + 1 Wt % biocide, Day 19) | Growth, Test Results on Fischer-Tropsch Diesel Fuel (bacterial inoculum [1]; FT Diesel + 100 ppm biocide, Day 0) | Growth, Test Results on Fischer-Tropsch Diesel Fuel (bacterial inoculum [1]; FT Diesel + 100 ppm biocide, Day 1) | Growth, Test Results on Fischer-Tropsch Diesel Fuel (bacterial inoculum [1]; FT Diesel + 100 ppm biocide, Day 5) | Growth, Test Results on Fischer-Tropsch Diesel Fuel (bacterial inoculum [1]; FT Diesel + 100 ppm biocide, Day 7) | Growth, Test Results on Fischer-Tropsch Diesel Fuel (bacterial inoculum [1]; FT Diesel + 100 ppm biocide, Day 8) | Growth, Test Results on ALAD Diesel Fuel (bacterial inoculum [1]; LA Diesel + 1 Wt % biocide, Day 0) | Growth, Test Results on ALAD Diesel Fuel (bacterial inoculum [1]; LA Diesel + 1 Wt % biocide, Day 1) | Growth, Test Results on ALAD Diesel Fuel (bacterial inoculum [1]; LA Diesel + 1 Wt % biocide, Day 5) | Growth, Test Results on ALAD Diesel Fuel (bacterial inoculum [1]; LA Diesel + 1 Wt % biocide, Day 7) | Growth, Test Results on ALAD Diesel Fuel (bacterial inoculum [1]; LA Diesel + 1 Wt % biocide, Day 8) | Growth, Test Results on ALAD Diesel Fuel (bacterial inoculum [1]; LA Diesel + 1 Wt % biocide, Day 19) | Growth, Test Results on ALAD Diesel Fuel (bacterial inoculum [1]; LA Diesel + 100 ppm biocide, Day 0) | Growth, Test Results on ALAD Diesel Fuel (bacterial inoculum [1]; LA Diesel + 100 ppm biocide, Day 1) | Growth, Test Results on ALAD Diesel Fuel (bacterial inoculum [1]; LA Diesel + 100 ppm biocide, Day 5) | Growth, Test Results on ALAD Diesel Fuel (bacterial inoculum [1]; LA Diesel + 100 ppm biocide, Day 7) | Growth, Test Results on ALAD Diesel Fuel (bacterial inoculum [1]; LA Diesel + 100 ppm biocide, Day 8) | Growth, Test Results on ALAD Diesel Fuel (bacterial inoculum [1]; LA Diesel + 100 ppm biocide, Day 19) | Growth, Neutralization of Biocides with MEA (bacterial inoculum [2]; 1 ppm G, Time 0 days) | Growth, Neutralization of Biocides with MEA (bacterial inoculum [2]; 1 ppm G, Time 1 days) | Growth, Neutralization of Biocides with MEA (bacterial inoculum [2]; 1 ppm G, Time 2 days) | Growth, Neutralization of Biocides with MEA (bacterial inoculum [2]; 1 ppm G, Time 3 days) | Growth, Neutralization of Biocides with MEA (bacterial inoculum [2]; 1 ppm G, Time 7 days) | Growth, Neutralization of Biocides with MEA (bacterial inoculum [2]; 10 ppm G, Time 0 days) | Growth, Neutralization of Biocides with MEA (bacterial inoculum [2]; 10 ppm G, Time 1 days) | Growth, Neutralization of Biocides with MEA (bacterial inoculum [2]; 10 ppm G, Time 2 days) | Growth, Neutralization of Biocides with MEA (bacterial inoculum [2]; 10 ppm G, Time 3 days) | Growth, Neutralization of Biocides with MEA (bacterial inoculum [2]; 10 ppm G, Time 7 days) | Growth, Neutralization of Biocides with MEA (bacterial inoculum [2]; 10 ppm G, Time 9 days) | Growth, Neutralization of Biocides with MEA (bacterial inoculum [2]; 10 ppm G, Time 14 days) | Growth, Neutralization of Biocides with MEA (bacterial inoculum [2]; 100 ppm G, Time 0 days) | Growth, Neutralization of Biocides with MEA (bacterial inoculum [2]; 100 ppm G, Time 1 days) | Growth, Neutralization of Biocides with MEA (bacterial inoculum [2]; 100 ppm G, Time 2 days) | Growth, Neutralization of Biocides with MEA (bacterial inoculum [2]; 100 ppm G, Time 3 days) | Growth, Neutralization of Biocides with MEA (bacterial inoculum [2]; 100 ppm G, Time 7 days) | Growth, Neutralization of Biocides with MEA (bacterial inoculum [2]; 100 ppm G, Time 9 days) | Growth, Neutralization of Biocides with MEA (bacterial inoculum [2]; 100 ppm G, Time 14 days)
25 µg/mL: LC50 at 96 h (in vivo; second experiment, as starting glutaraldehyde concentration, solutions mixed for 48 hours prior to bioassay)
26 µg/mL: LC50 at 96 h (in vivo; 96 h, control experiment, separate compounds)
13 mg/L: NOEC [3]
25 mg/L: LOEC [3]
+: Growth, Test Results on Fischer-Tropsch Diesel Fuel (bacterial inoculum [1]; FT Diesel + 100 ppm biocide, Day 19) | Growth, Neutralization of Biocides with MEA (bacterial inoculum [2]; 1 ppm G, Time 9 days) | Growth, Neutralization of Biocides with MEA (bacterial inoculum [2]; 1 ppm G, Time 14 days)
more than 14 days: onset of microbial growth (delayed from 3 days) (bacterial inoculum [2]; 10 ppm of glutaraldehyde)
effective at a lower concentration: effectiveness as biocide (inhibits microbial growth) (bacterial inoculum [1]; ALAD diesel fuel) | effectiveness as biocide (inhibits microbial growth) (bacterial inoculum [1]; Fischer-Tropsch diesel fuel)
